target: T1, human CCR10 (Homo sapiens, UniProt P46092); experiment: CCR10 antagonistic effect: calcium assay of human CCR10 (CTACK-induced increase of intracellular calcium in hCCR10G16 cells); format: cell-based; conditions: at a concentration of not more than 1000 nmol/L; human CCR10-expressing hCCR10G16 cells, 300 nmol/L CTACK added; read-out: inhibition of increase in the calcium ion concentration
T1 construct: expressed in transfected cells; host or cells: KJMGER8 cells (Namalwa cell-derived line), beta-estradiol-induced; hCCR10G16 cells
T1 sequence (P46092 1-362): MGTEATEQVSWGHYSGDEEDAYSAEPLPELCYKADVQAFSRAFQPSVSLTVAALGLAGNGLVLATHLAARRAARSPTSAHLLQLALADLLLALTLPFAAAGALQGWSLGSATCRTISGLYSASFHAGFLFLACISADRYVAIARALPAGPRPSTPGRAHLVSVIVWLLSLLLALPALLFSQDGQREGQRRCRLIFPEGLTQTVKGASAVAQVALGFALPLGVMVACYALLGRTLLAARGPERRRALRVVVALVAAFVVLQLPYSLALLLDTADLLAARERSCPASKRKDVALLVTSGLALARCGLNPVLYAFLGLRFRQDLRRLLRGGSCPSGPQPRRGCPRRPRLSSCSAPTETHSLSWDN
Outline: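 Inhibition of CTACK-evoked calcium flux (max minus min Fluo-3 fluorescence over ~5 min, FDSS) was calculated against control in β-estradiol-induced human CCR10/Gα16 KJMGER8 cells, after 30 min compound preincubation at 37 °C; CTACK added from a 300 nmol/L solution.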

inhibition at up to 1 µM [%] | Compound
≥ 50 | NS(=O)(=O)c1ncc(C(=O)N2CCC(c3ccc(F)cc3)CC2)c(NCc2cccs2)c1Cl [Compound 231, 3-chloro-5-[4-(4-fluorophenyl)piperidine-1-carbonyl]-4-(thiophen-2-ylmethylamino)pyridine-2-sulfonamide]
≥ 50 | COc1ccc(Nc2c(C(=O)N3CCC(c4ccc(F)cc4)CC3)cnc(S(=O)(=O)Nc3ccon3)c2C)c(C)c1 [Compound 234, 5-[4-(4-fluorophenyl)piperidine-1-carbonyl]-N-(isoxazol-3-yl)-4-(4-methoxy-2-methylphenylamino)-3-methylpyridine-2-sulfonamide]
≥ 50 | Cc1ccc(Nc2c(C(=O)N3CCC(c4ccc(F)cc4)CC3)cnc(S(=O)(=O)Nc3ccon3)c2C)c(F)c1 [Compound 235, 4-(2-fluoro-4-methylphenylamino)-5-[4-(4-fluorophenyl)piperidine-1-carbonyl]-N-(isoxazol-3-yl)-3-methylpyridine-2-sulfonamide]
≥ 50 | NS(=O)(=O)c1ncc(C(=O)N2CCC(c3ccc(F)cc3)CC2)c(N[C@H]2C[C@H]3CC[C@@H]2C3)c1Cl [Compound 236, 4-((1R,2S,4S)-bicyclo[2.2.1]heptan-2-ylamino)-3-chloro-5-[4-(4-fluorophenyl)piperidine-1-carbonyl]pyridine-2-sulfonamide]
≥ 50 | NS(=O)(=O)c1ncc(C(=O)N2CCC(c3ccc(F)cc3)CC2)c(NC2CCc3ccccc32)c1Cl (stereo not shown) [Compound 237, 3-chloro-4-(2,3-dihydro-1H-inden-1-ylamino)-5-[4-(4-fluorophenyl)piperidine-1-carbonyl]pyridine-2-sulfonamide]
≥ 50 | NS(=O)(=O)c1ncc(C(=O)N2CCC(c3ccc(F)cc3)CC2)c(Oc2cccc(F)c2)c1Cl [Compound 238, 3-chloro-4-(3-fluorophenoxy)-5-[4-(4-fluorophenyl)piperidine-1-carbonyl]pyridine-2-sulfonamide]
≥ 50 | CCc1ccccc1Nc1c(C(=O)N2CCC(c3ccc(F)cc3)CC2)cnc(S(=O)(=O)Nc2ccon2)c1C [Compound 239, 4-(2-ethylphenylamino)-5-[4-(4-fluorophenyl)piperidine-1-carbonyl]-N-(isoxazol-3-yl)-3-methylpyridine-2-sulfonamide]
≥ 50 | Cc1cc(F)ccc1Nc1c(C(=O)N2CCC(c3ccc(F)cc3)CC2)nnc(S(N)(=O)=O)c1Cl [Compound 240, 4-chloro-5-(4-fluoro-2-methylphenylamino)-6-[4-(4-fluorophenyl)piperidine-1-carbonyl]pyridazine-3-sulfonamide]
≥ 50 | Cn1ncc2cc(Nc3c(C(=O)N4CCC(c5ccc(F)cc5)CC4)cnc(S(N)(=O)=O)c3Cl)ccc21 [Compound 242, 3-chloro-5-[4-(4-fluorophenyl)piperidine-1-carbonyl]-4-(1-methyl-1H-indazol-5-ylamino)pyridine-2-sulfonamide]
≥ 50 | NS(=O)(=O)c1ncc(C(=O)N2CCC(c3ccc(F)cc3)CC2)c(Nc2ccc3c(c2)CCC3=O)c1Cl [Compound 243, 3-chloro-5-[4-(4-fluorophenyl)piperidine-1-carbonyl]-4-(1-oxo-2,3-dihydro-1H-inden-5-ylamino)pyridine-2-sulfonamide]
≥ 50 | Cc1c(S(=O)(=O)Nc2ccon2)ncc(C(=O)N2CCC(c3ccc(F)cc3)CC2)c1Nc1cccc(Cl)c1 [Compound 244, 4-(3-chlorophenylamino)-5-[4-(4-fluorophenyl)piperidine-1-carbonyl]-N-(isoxazol-3-yl)-3-methylpyridine-2-sulfonamide]
≥ 50 | Cc1nc(C(F)(F)F)ccc1Nc1c(C(=O)N2CCC(c3ccc(F)cc3)CC2)cnc(S(N)(=O)=O)c1C [Compound 245, 5-[4-(4-fluorophenyl)piperidine-1-carbonyl]-3-methyl-4-[2-methyl-6-(trifluoromethyl)pyridin-3-ylamino]pyridine-2-sulfonamide]
≥ 50 | Cc1c(S(=O)(=O)Nc2ccon2)ncc(C(=O)N2CCC(c3ccc(F)cc3)CC2)c1Nc1cc(F)c(F)cc1F [Compound 246, 5-[4-(4-fluorophenyl)piperidine-1-carbonyl]-N-(isoxazol-3-yl)-3-methyl-4-(2,4,5-trifluorophenylamino)pyridine-2-sulfonamide]
≥ 50 | Cc1c(S(=O)(=O)Nc2ccon2)ncc(C(=O)N2CCC(c3ccc(F)cc3)CC2)c1Nc1ccc2c(c1)COC2 [Compound 247, 4-(1,3-dihydroisobenzofuran-5-ylamino)-5-[4-(4-fluorophenyl)piperidine-1-carbonyl]-N-(isoxazol-3-yl)-3-methylpyridine-2-sulfonamide]
≥ 50 | Cc1ncc(Cl)cc1Nc1c(C(=O)N2CCC(c3ccc(F)cc3)CC2)cnc(S(=O)(=O)Nc2ccon2)c1C [Compound 248, 4-(5-chloro-2-methylpyridin-3-ylamino)-5-[4-(4-fluorophenyl)piperidine-1-carbonyl]-N-(isoxazol-3-yl)-3-methylpyridine-2-sulfonamide]
≥ 50 | Cc1cccc(Oc2c(C(=O)N3CCC(c4ccc(F)cc4)CC3)cnc(S(=O)(=O)Nc3ccon3)c2C)c1 [Compound 249, 5-[4-(4-fluorophenyl)piperidine-1-carbonyl]-N-(isoxazol-3-yl)-3-methyl-4-(m-tolyloxy)pyridine-2-sulfonamide]
≥ 50 | Cc1c(S(=O)(=O)Nc2ccn(C)n2)ncc(C(=O)N2CCC(c3ccc(F)cc3)CC2)c1NCc1ccccc1 [Compound 250, 4-(benzylamino)-5-[4-(4-fluorophenyl)piperidine-1-carbonyl]-3-methyl-N-(1-methyl-1H-pyrazol-3-yl)pyridine-2-sulfonamide]
≥ 50 | Cc1cc(NS(=O)(=O)c2ncc(C(=O)N3CCC(c4ccc(F)cc4)CC3)c(NCc3ccccc3)c2C)sn1 [Compound 251, 4-(benzylamino)-5-[4-(4-fluorophenyl)piperidine-1-carbonyl]-3-methyl-N-(3-methylisothiazol-5-yl)pyridine-2-sulfonamide]
≥ 50 | Cc1c(S(=O)(=O)Nc2ccon2)ncc(C(=O)N2CCC(c3ccc(F)cc3)CC2)c1Nc1cc(F)ccc1F [Compound 252, 4-(2,5-difluorophenylamino)-5-[4-(4-fluorophenyl)piperidine-1-carbonyl]-N-(isoxazol-3-yl)-3-methylpyridine-2-sulfonamide]
≥ 50 | Cc1c(S(N)(=O)=O)ncc(C(=O)N2CCN(c3ccc(F)cc3)C(=O)C2)c1NCc1ccccc1 [Compound 253, 4-(benzylamino)-5-[4-(4-fluorophenyl)-3-oxopiperazine-1-carbonyl]-3-methylpyridine-2-sulfonamide]
≥ 50 | Cc1c(S(=O)(=O)Nc2ccon2)ncc(C(=O)N2CCC(c3ccc(F)cc3)CC2)c1Nc1cccc(F)c1F [Compound 254, 4-(2,3-difluorophenylamino)-5-[4-(4-fluorophenyl)piperidine-1-carbonyl]-N-(isoxazol-3-yl)-3-methylpyridine-2-sulfonamide]
≥ 50 | Cc1c(S(=O)(=O)Nc2ccon2)ncc(C(=O)N2CCC(c3ccc(F)cc3)CC2)c1Nc1ccccc1F [Compound 255, 5-[4-(4-fluorophenyl)piperidine-1-carbonyl]-4-(2-fluorophenylamino)-N-(isoxazol-3-yl)-3-methylpyridine-2-sulfonamide]
